Measurements as given in the supplement of paper PMC9265050, “Inhibition of RNA Binding in SND1 Increases the Levels of miR-1-3p and Sensitizes Cancer Cells to Navitoclax” (Cancers, 2022).

System: SW480
Assay: drug sensitivity score (DSS, integrated dose-response area); higher = more sensitive (stronger viability reduction); extreme values may be limits of the assay
Method in brief: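 SW480 cells stably carrying doxycycline-inducible control or SND1-targeting shRNA were induced with 0.1 µg/mL doxycycline for 7 days. They were then plated at 1000 cells per well in 384-well plates holding 525 commercially available small-molecule inhibitors at five concentrations. Viability was read with CellTiter-Glo after 72 h. The drug sensitivity score integrates the area under a fitted non-linear dose–response model.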

[1] = shRNA: SND1 shRNA1 (SND1 silenced)
[2] = shRNA: SND1 shRNA2 (SND1 silenced)
[3] = shRNA: control shRNA (non-targeting)

Compound	drug sensitivity score [1] [DSS]	drug sensitivity score [2] [DSS]	drug sensitivity score [3] [DSS]
Nc1cc(F)ccc1NC(=O)/C=C/c1cnn(C/C=C/c2ccccc2)c1 [RGFP966]	6.3	6.3	6.8
Cc1cnc(NC(=O)Nc2cc(Br)c(C)cc2OC[C@@H]2CNCCO2)cn1 [Rabusertib]	1.8	1.4	2
C[C@@H]1C[C@H]2O[C@@H]2/C=C\C=C\C(=O)Cc2c(Cl)c(O)cc(O)c2C(=O)O1 [Radicicol]	13.4	12.1	12.3
CC(C)(C)Cn1c(N)nc2ccc(-c3[nH]c(C(C)(C)C)nc3-c3ccc(F)cc3)nc21 [Ralimetinib]	1.7	0	0.2
O=C(c1ccc(OCCN2CCCCC2)cc1)c1c(-c2ccc(O)cc2)sc2cc(O)ccc12 [Raloxifene]	6.6	4.1	7.2
Cc1nc(=O)c2cc(CN(C)c3ccc(C(=O)N[C@@H](CCC(=O)O)C(=O)O)s3)ccc2[nH]1 [Raltitrexed]	5.2	0	4.8
CNC(=O)c1cc(Oc2ccc(NC(=O)Nc3cc(C(C)(C)C)nn3-c3ccc4ncccc4c3)c(F)c2)ccn1 [Rebastinib]	0	0	0
COc1cc(F)c(F)c(Nc2ccc(I)cc2F)c1NS(=O)(=O)C1(C[C@H](O)CO)CC1 [Refametinib]	26.8	18	11.1
CNC(=O)c1cc(Oc2ccc(NC(=O)Nc3ccc(Cl)c(C(F)(F)F)c3)c(F)c2)ccn1 [Regorafenib]	7.8	7.9	5.1
CN(C)Cc1ccc(S(=O)(=O)n2ccc(/C=C/C(=O)NO)c2)cc1 [Resminostat]	8	8.1	6.1
CN(C)C(=O)c1cc2cnc(Nc3ccc(N4CCNCC4)cn3)nc2n1C1CCCC1 [Ribociclib]	3.8		4.9
CO[C@H]1C[C@@H]2CC[C@@H](C)[C@@](O)(O2)C(=O)C(=O)N2CCCC[C@H]2C(=O)O[C@H]([C@H](C)C[C@@H]2CC[C@@H](OP(C)(C)=O)[C@H](OC)C2)CC(=O)[C@H](C)/C=C(\C)[C@@H](O)[C@@H](OC)C(=O)[C@H](C)C[C@H](C)/C=C/C=C/C=C/1C [Ridaforolimus]	5.9		2.3
COc1cc(OC)c(/C=C/S(=O)(=O)Cc2ccc(OC)c(NCC(=O)O)c2)c(OC)c1 [Rigosertib]	15.1	18.2	16.4
C=CC(=O)Nc1cccc(Nc2nc(Nc3ccc(N4CCN(C(C)=O)CC4)cc3OC)ncc2C(F)(F)F)c1 [Rociletinib]	7.2	3.5	7.5
O=C(CCCCCCNC(=O)c1cnc(N(c2ccccc2)c2ccccc2)nc1)NO [Rocilinostat]	4	7	8.4
CS(=O)(=O)c1ccc(C2=C(c3ccccc3)C(=O)OC2)cc1 [Rofecoxib]	0	0	0
C/C=C1\NC(=O)[C@H]2CSSCC/C=C/[C@H](CC(=O)N[C@H](C(C)C)C(=O)N2)OC(=O)[C@H](C(C)C)NC1=O [Romidepsin]	25.7	25.1	27.4
CN(C)C[C@@H]1CCn2cc(c3ccccc32)C2=C(C(=O)NC2=O)c2cn(c3ccccc23)CCO1 [Ruboxistaurin]	8.1	7.8	7.4
CNCc1ccc(-c2[nH]c3cc(F)cc4c3c2CCNC4=O)cc1 [Rucaparib]	0.3	3	4.6
N#CC[C@H](C1CCCC1)n1cc(-c2ncnc3[nH]ccc23)cn1 [Ruxolitinib]	2.3	5.6	4.4
CC(C)N(CCCNC(=O)Nc1ccc(C(C)(C)C)cc1)C[C@H]1O[C@@H](n2cc(Br)c3c(N)ncnc32)[C@H](O)[C@@H]1O [SGC0946]	4.6	1.3	4.3
COc1ccc(CCc2nc3cc(-c4c(C)noc4C)ccc3n2C[C@H](C)N2CCOCC2)cc1Cl [SGC-CBP30]	0.8	2.1	2.3
CN1CCC(CNc2ccc3ncc(-c4cccc(OC(F)(F)F)c4)n3n2)CC1 [SGI-1776]	9.6	9.5	8.9
Cn1cc(-c2ccc3nnc(Sc4ccc5ncccc5c4)n3n2)cn1 [SGX-523]	0		0

Compound	drug sensitivity score [1] [DSS]	drug sensitivity score [2] [DSS]	drug sensitivity score [3] [DSS]
CN(CC(=O)N(Cc1ccc(C2CCCCC2)cc1)c1ccc(C(=O)O)cc1)S(=O)(=O)c1c(F)c(F)c(F)c(F)c1F [SH-4-54]	9.8	8.6	9.5
CC(C)NC(=O)COc1cccc(-c2nc(Nc3ccc4[nH]ncc4c3)c3ccccc3n2)c1 [SLx-2119]	0	0	0
CCc1c2c(nc3ccc(O)cc13)-c1cc3c(c(=O)n1C2)COC(=O)[C@]3(O)CC [SN-38]	21.2	12.5	18.7
CC(C)(C)c1cnc(CSc2cnc(NC(=O)C3CCNCC3)s2)o1 [SNS-032]	18.1	15	16.5
O=C(Nc1cccc(Cl)c1)Nc1ncc(CCNc2ncnc3ccsc23)s1 [SNS-314]	4.8	4.3	5.6
Cc1cc2c(C(=O)NC[C@H](C)c3ccccc3)c(O)c(O)cc2c(O)c1-c1c(C)cc2c(C(=O)NC[C@H](C)c3ccccc3)c(O)c(O)cc2c1O [Sabutoclax]	14.2	13.3	12.7
CNC(=O)CN1CCC(Oc2cc3c(Nc4cccc(Cl)c4F)ncnc3cc2OC)CC1 [Sapitinib]	0.1	5	0
CN1CCN(CCOc2cc(OC3CCOCC3)c3c(Nc4c(Cl)ccc5c4OCO5)ncnc3c2)CC1 [Saracatinib]	1.4	1.3	1.5
CC[C@H](CO)Nc1nc(NCc2ccccc2)c2ncn(C(C)C)c2n1 [Seliciclib]	2.1	0.7	1.2
O=C(/C=C\n1cnc(-c2cc(C(F)(F)F)cc(C(F)(F)F)c2)n1)NNc1cnccn1 [Selinexor]	19.5	19.3	20.7
Cn1cnc2c(F)c(Nc3ccc(Br)cc3Cl)c(C(=O)NOCCO)cc21 [Selumetinib]	19.1	8.9	4.7
Cc1cc(C)c(/C=C2\C(=O)Nc3ccccc32)[nH]1 [Semaxanib]	0	0	0.6
c1ccc2c(CCNc3ccc(Nc4ccncc4)cc3)c[nH]c2c1 [Serdemetan]	2.4	1	2.2
O=C(O)c1ccc2c(c1)nc(Nc1cccc(Cl)c1)c1ccncc12 [Silmitasertib]	2.1	2.1	0.8
CCC(C)(C)C(=O)O[C@H]1C[C@@H](C)C=C2C=C[C@H](C)[C@H](CC[C@@H]3C[C@@H](O)CC(=O)O3)[C@H]21 [Simvastatin]	1.2		4.5
CO[C@H]1C[C@@H]2CC[C@@H](C)[C@@](O)(O2)C(=O)C(=O)N2CCCC[C@H]2C(=O)O[C@H]([C@H](C)C[C@@H]2CC[C@@H](O)[C@H](OC)C2)CC(=O)[C@H](C)/C=C(\C)[C@@H](O)[C@@H](OC)C(=O)[C@H](C)C[C@H](C)/C=C/C=C/C=C/1C [Sirolimus]	7.8		6.9
Cc1c(C(=O)Nc2ccc(N3C[C@@H](C)O[C@@H](C)C3)nc2)cccc1-c1ccc(OC(F)(F)F)cc1 [Sonidegib]	2.9	5.7	2.8
C=CCN(/C=C1/C(=O)O[C@H](COC)[C@@]2(C)C1=C(O)C(=O)C1=C2[C@H](OC(C)=O)C[C@]2(C)C(=O)CC[C@@H]12)CC=C [Sonolisib]	0	0.3	2.1
CNC(=O)c1cc(Oc2ccc(NC(=O)Nc3ccc(Cl)c(C(F)(F)F)c3)cc2)ccn1 [Sorafenib]	0	0	0
CN1CCN(c2nc(C3=C(c4c[nH]c5ccccc45)C(=O)NC3=O)c3ccccc3n2)CC1 [Sotrastaurin]	4.5	0.5	4.9
C=CC(=O)Nc1cccc(Nc2nc(Nc3ccc(OCCOC)cc3)ncc2F)c1 [Spebrutinib]	2.5	0	4.4
O=[N+]([O-])c1ccc2c(c1)S(=O)(=O)C=C2 [Stattic]	16	15.8	9.5
CC(C)n1cnc2c(NCCc3ccc(O)cc3)nc(-c3csc4ccccc34)nc21 [StemRegenin 1]	1.3	1	0.8
CN(N=O)C(=O)N[C@@H](C=O)[C@@H](O)[C@H](O)[C@H](O)CO [Streptozocin]	0.8	5.9	4.1
